Assay results: ChEMBL document CHEMBL1153375, “Synthesis and antibacterial activities of N-glycosylated derivatives of tyrocidine A, a macrocyclic peptide antibiotic” (2009)
In brackets after ≈: the same amount, converted by molar mass. Activity calls are given as the source filed them. The calls are words filed in the database; no cut-off is given here.

How the values were obtained:
[1] = system: Bacillus subtilis; assay: Antibacterial activity against Bacillus subtilis CMCC-B 63501 by twofold serial dilution method; assay type: functional
[2] = system: Bacillus subtilis; assay: Antibacterial activity against Bacillus subtilis CMCC-B 63501 up to 500 ug/ml by twofold serial dilution method; assay type: functional, organism-based
[3] = Bacillus subtilis, read-out: MIC

Structure (SMILES)	MIC [1, 3] [µg/mL]	Activity [2]	further results
CC(C)C[C@@H]1NC(=O)[C@H](CCCN)NC(=O)[C@H](C(C)C)NC(=O)[C@H](Cc2ccc(O)cc2)NC(=O)[C@H](CCC(N)=O)NC(=O)[C@H](CC(=O)NCCO[C@@H]2O[C@H](CO)[C@@H](O[C@@H]3O[C@H](CO)C(O)[C@H](O)[C@H]3O)[C@H](O)[C@H]2O)NC(=O)C(Cc2ccccc2)NC(=O)[C@H](Cc2ccccc2)NC(=O)[C@@H]2CCCN2C(=O)C(Cc2ccccc2)NC1=O (single isomer, unassigned)	62 (≈ 37.8 µM)	–	–
CC(=O)N[C@@H]1[C@@H](O)[C@H](O)[C@@H](CO)O[C@H]1NC(=O)C[C@@H]1NC(=O)C(Cc2ccccc2)NC(=O)[C@H](Cc2ccccc2)NC(=O)[C@@H]2CCCN2C(=O)C(Cc2ccccc2)NC(=O)[C@H](CC(C)C)NC(=O)[C@H](CCCN)NC(=O)[C@H](C(C)C)NC(=O)[C@H](Cc2ccc(O)cc2)NC(=O)[C@H](CCC(N)=O)NC1=O (single isomer, unassigned)	–	inactive	–
CC(=O)N[C@@H]1[C@@H](O)[C@H](O[C@@H]2O[C@H](CO)[C@@H](O)[C@H](O)[C@H]2NC(C)=O)[C@@H](CO)O[C@H]1NC(=O)C[C@@H]1NC(=O)C(Cc2ccccc2)NC(=O)[C@H](Cc2ccccc2)NC(=O)[C@@H]2CCCN2C(=O)C(Cc2ccccc2)NC(=O)[C@H](CC(C)C)NC(=O)[C@H](CCCN)NC(=O)[C@H](C(C)C)NC(=O)[C@H](Cc2ccc(O)cc2)NC(=O)[C@H](CCC(N)=O)NC1=O (single isomer, unassigned)	–	inactive	–
CC(C)C[C@@H]1NC(=O)[C@H](CCCN)NC(=O)[C@H](C(C)C)NC(=O)[C@H](Cc2ccc(O)cc2)NC(=O)[C@H](CCC(N)=O)NC(=O)[C@H](CC(N)=O)NC(=O)[C@@H](Cc2ccccc2)NC(=O)[C@H](Cc2ccccc2)NC(=O)[C@@H]2CCCN2C(=O)[C@@H](Cc2ccccc2)NC1=O (stereo in doubt) [TYROCIDINE A]	–	–	MIC [1]: 20 µg/mL (≈ 15.7 µM)
CC(C)C[C@@H]1NC(=O)[C@H](CCCN)NC(=O)[C@H](C(C)C)NC(=O)[C@H](Cc2ccc(O)cc2)NC(=O)[C@H](CCC(N)=O)NC(=O)[C@H](CC(N)=O)NC(=O)[C@@H](Cc2ccccc2)NC(=O)[C@H](Cc2ccccc2)NC(=O)[C@@H]2CCCN2C(=O)[C@@H](Cc2ccccc2)NC1=O (stereo in doubt; 1) [TYROCIDINE A]	31 (≈ 24.4 µM)	–	–
